The source of these data is patent US10258603B2 (priority 2014, dated 2019).

As usually defined, the IC50 is the concentration that gives 50% inhibition. A high value points to a need for much substance.

The target of the assay is T1, TAF1-BD2 (Homo sapiens, UniProt P21675).
T1 sequence (P21675 1525-1656): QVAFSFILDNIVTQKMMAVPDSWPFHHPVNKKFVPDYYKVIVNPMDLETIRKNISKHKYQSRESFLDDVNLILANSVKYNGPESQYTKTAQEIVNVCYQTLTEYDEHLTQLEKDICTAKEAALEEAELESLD
Nature of the assay: TAF1-BD2 TR-FRET Binding Assay. The following applies: Assay: TAF-1. Background: Time-resolved FRET reads energy transfer from a long-lived donor to a nearby acceptor.
Experimental: Specifically, in a 384 well ProxiPlate TAF1-BD2 (6 nM final) was combined with biotin-ligand (50 nM final) in 50 mM HEPES (pH 7.5), 50 mM NaCl, 1 mM TCEP, 0.01% (w/v) BSA, and 0.008% (w/v) Brij-35 either in the presence of DMSO (final 0.2% DMSO) or compound dilution series in DMSO. After 10 minutes incubation at room temperature, a mixture Eu-W1024 Anti-6×His antibody (Perkin Elmer AD0110) and SureLight™ Allophycocyanin-Streptavidin (APC-SA, Perkin Elmer CR130-100) were added to a final concentrations of 0.2 nMolar antibody and 25 nMolar APC-SA, respectively. After twenty minutes of equilibration, the plates were read on an Envision instrument and IC50s calculated using a four parameter non-linear curve fit.
`CC=CCn1cc(C(=O)NCCNC(C)=O)c2cc[nH]c2c1=O` [Example 14, N-(2-acetamidoethyl)-6-but-2-enyl-7-oxo-1H-pyrrolo[2,3-c]pyridine-4-carboxamide] came in with an IC50 of 3.7 µM.
Under `CN(CC1CCN(CC2CCOC2)CC1)C(=O)c1cn(C)c(=O)c2[nH]ccc12` (centres unmarked) [Example 236] stands 14 µM; under `CN1CCCC(CNC(=O)c2cn(C)c(=O)c3[nH]ccc23)C1` (centres unmarked) [Example 24, 6-methyl-N-[(1-methyl-3-piperidyl)methyl]-7-oxo-1H-pyrrolo[2,3-c]pyridine-4-carboxamide], 0.15 µM.
For `Cn1cc(C(=O)N2CCCCC2)c2cc[nH]c2c1=O` [Example 70, 6-methyl-4-(piperidine-1-carbonyl)-1H-pyrrolo[2,3-c]pyridin-7-one] the value was 6.4 µM.
Under `Cn1cc(C(=O)NC2CCN(c3cnccn3)CC2)c2cc[nH]c2c1=O` [Example 151, 6-methyl-7-oxo-N-(1-pyrazin-2-yl-4-piperidyl)-1H-pyrrolo[2,3-c]pyridine-4-carboxamide] stands 0.55 µM; under `Cn1cc(C(=O)NCC(C)(C)N2CCOCC2)c2cc[nH]c2c1=O` [Example 36, 6-methyl-N-(2-methyl-2-morpholino-propyl)-7-oxo-1H-pyrrolo [2,3-c]pyridine-4-carboxamide], 1.7 µM.
`Cn1cc(C(=O)NC2CCN(c3ccccc3)CC2)c2cc[nH]c2c1=O` [Example 171, 6-methyl-7-oxo-N-(1-phenyl-4-piperidyl)-1H-pyrrolo[2,3-c]pyridine-4-carboxamide] gave an IC50 of 0.26 µM.
As to `Cn1cc(C(=O)NCC2CCCOC2)c2cc[nH]c2c1=O` (centres unmarked) [Example 100], the IC50 amounted to 1.7 µM. This IC50 lies about 6.5-fold higher than the previous one.
Under `CC(C)N1CC2C(C1)C2NC(=O)c1cn(C)c(=O)c2[nH]ccc12` (centres unmarked) [Example 228] stands 3.3 µM; under `CN1CCC(C)(NC(=O)c2cn(C)c(=O)c3[nH]ccc23)CC1` [Example 210, N-(1,4-dimethyl-4-piperidyl)-6-methyl-7-oxo-1H-pyrrolo[2,3-c]pyridine-4-carboxamide], 5.3 µM.
“N-cyclopropyl-6-methyl-N-(1-methyl-4-piperidyl)-7-oxo-1H-pyrrolo[2,3-c]pyridine-4-carboxamide [Example 81]”: the IC50 is 0.71 µM.
For `Cn1cc(C(=O)N2CCC(N3CCOCC3)CC2)c2cc[nH]c2c1=O` [Example 63, 6-methyl-4-(4-morpholinopiperidine-1-carbonyl)-1H-pyrrolo[2,3-c]pyridin-7-one] the value was 4.7 µM.
Under `Cc1ccnc(N2CCC(NC(=O)c3cn(C)c(=O)c4[nH]ccc34)CC2)n1` [Example 150, 6-methyl-N-[1-(4-methylpyrimidin-2-yl)-4-piperidyl]-7-oxo-1H-pyrrolo[2,3-c]pyridine-4-carboxamide] stands 0.36 µM.
For `Cn1cc(C(=O)NC2CCN(c3ccccn3)CC2)c2cc[nH]c2c1=O` [Example 42, 6-methyl-7-oxo-N-[1-(2-pyridyl)-4-piperidyl]-1H-pyrrolo[2,3-c]pyridine-4-carboxamide] the value was 0.21 µM; for `CC=CCn1cc(C(=O)NCC2CN(C(=O)OC(C)(C)C)C2)c2cc[nH]c2c1=O` [Example 10, tert-butyl 3-[[(6-but-2-enyl-7-oxo-1H-pyrrolo[2,3-c]pyridine-4-carbonyl)amino]methyl]azetidine-1-carboxylate], 4.7 µM; for `CC=CCn1cc(C(=O)NCCCNC(=O)OCc2ccccc2)c2cc[nH]c2c1=O` [Example 17, benzyl N-[3-[(6-but-2-enyl-7-oxo-1H-pyrrolo[2,3-c]pyridine-4-carbonyl)amino]propyl]carbamate], 3.6 µM.
Take `COCCN(C(=O)c1cn(C)c(=O)c2[nH]ccc12)C1CCN(C)CC1` [Example 84]: the IC50 is 5.7 µM.
For `C=CCn1cc(C(=O)N(C)C2[C@H]3CN(c4nccc(C(F)(F)F)n4)C[C@@H]23)c2cc[nH]c2c1=O` (some centres unmarked) [Example 250] the value was 14 µM; for `Cn1cc(C(=O)NC2CCN(c3ccncn3)CC2)c2cc[nH]c2c1=O` [Example 148, 6-methyl-7-oxo-N-(1-pyrimidin-4-yl-4-piperidyl)-1H-pyrrolo[2,3-c]pyridine-4-carboxamide], 0.44 µM.
Compound `Cn1cc(C(=O)NC2CCN(c3ncccn3)CC2)c2cc[nH]c2c1=O` [Example 44, 6-methyl-7-oxo-N-(1-pyrimidin-2-yl-4-piperidyl)-1H-pyrrolo[2,3-c]pyridine-4-carboxamide] gave an IC50 of 0.34 µM.
Under `C=CCn1cc(C(=O)N(C)C2CCN(c3cc(CCC)ncn3)CC2)c2cc[nH]c2c1=O` [Example 166, 6-allyl-N-methyl-7-oxo-N-[1-(6-propylpyrimidin-4-yl)-4-piperidyl]-1H-pyrrolo[2,3-c]pyridine-4-carboxamide] stands 2.1 µM.
For `CN(C1CCCCC1)C1CCN(C(=O)c2cn(C)c(=O)c3[nH]ccc23)CC1` [Example 52, 4-[4-[cyclohexyl(methyl)amino]piperidine-1-carbonyl]-6-methyl-1H-pyrrolo[2,3-c]pyridin-7-one] the value was 7.1 µM; for `CN(C(=O)c1cn(C)c(=O)c2[nH]ccc12)C1CCN(CC2CCCC2)CC1` [Example 219], 3.6 µM.
`Cn1cc(C(=O)N2CCC(F)CC2)c2cc[nH]c2c1=O` [Example 53, 4-(4-fluoropiperidine-1-carbonyl)-6-methyl-1H-pyrrolo[2,3-c]pyridin-7-one]: the IC50 stood at 8.2 µM.
For `CC(C)N1CC[C@H](NC(=O)c2cn(C)c(=O)c3[nH]ccc23)[C@H](F)C1` (relative stereo) [Example 240] the value was 3.4 µM; for `CN(CC1CCN(CC2CCCO2)CC1)C(=O)c1cn(C)c(=O)c2[nH]ccc12` (centres unmarked) [Example 231], 9.9 µM.
Under `Cn1cc(C(=O)N2CCC(c3cccc(F)c3)CC2)c2cc[nH]c2c1=O` [Example 49, 4-[4-(3-fluorophenyl)piperidine-1-carbonyl]-6-methyl-1H-pyrrolo[2,3-c]pyridin-7-one] stands 3.9 µM; under `Cc1cnc(N2CCC(NC(=O)c3cn(C)c(=O)c4[nH]ccc34)CC2)nc1` [Example 149, 6-methyl-N-[1-(5-methylpyrimidin-2-yl)-4-piperidyl]-7-oxo-1H-pyrrolo[2,3-c]pyridine-4-carboxamide], 0.32 µM.
`Cn1cc(C(=O)NC2CCN(c3ncc(F)cn3)CC2)c2cc[nH]c2c1=O` [Example 154, N-[1-(5-fluoropyrimidin-2-yl)-4-piperidyl]-6-methyl-7-oxo-1H-pyrrolo[2,3-c]pyridine-4-carboxamide] gave an IC50 of 0.53 µM.
With `CCN1CCC(CN(C)C(=O)c2cn(C)c(=O)c3[nH]ccc23)C1` (centres unmarked) [Example 27, N-[(1-ethylpyrrolidin-3-yl)methyl]-N,6-dimethyl-7-oxo-1H-pyirolo[2,3-c]pyridine-4-carboxamide], the IC50 stood at 6.9 µM.
For `CC=CCn1cc(C(=O)NCCN2CCN(Cc3ccccc3)CC2)c2cc[nH]c2c1=O` [Example 16, N-[2-(4-benzylpiperazin-1-yl)ethyl]-6-but-2-enyl-7-oxo-1H-pyrrolo[2,3-c]pyridine-4-carboxamide] the value was 6 µM; for `CC(CN1CCC(N(C)C(=O)c2cn(C)c(=O)c3[nH]ccc23)CC1)c1ccccc1` (centres unmarked) [Example 255], 4.8 µM; for `CN(CC1CCN(c2ncccn2)CC1)C(=O)c1cn(C)c(=O)c2[nH]ccc12` [Example 157, N,6-dimethyl-7-oxo-N-[(1-pyrimidin-2-yl-4-piperidyl)methyl]-1H-pyrrolo[2,3-c]pyridine-4-carboxamide], 1.6 µM.
For `COCCN1CCC(CN(C)C(=O)c2cn(C)c(=O)c3[nH]ccc23)CC1` [Example 193] the value was 1.6 µM; for `CN(CC1CCN(Cc2ccc(Cl)cc2)CC1)C(=O)c1cn(C)c(=O)c2[nH]ccc12` [Example 200, N-[[1-[(4-chloropbenyl)methyl]-4-piperidyl]methyl]-N,6-dimethyl-7-oxo-1H-pyrrolo[2,3-c]pyridine-4-carboxamide], 8 µM.
Under `Cn1cc(C(=O)N2CCC(c3ccccc3)CC2)c2cc[nH]c2c1=O` [Example 71, 6-methyl-4-(4-phenylpiperidine-1-carbonyl)-1H-pyrrolo[2,3-c]pyridin-7-one] stands 3 µM; under `Cn1cc(C(=O)NC2CCN(c3ncc(C#N)cn3)CC2)c2cc[nH]c2c1=O` [Example 152, N-[1-(5-cyanopyrimidin-2-yl)-4-piperidyl]-6-methyl-7-oxo-1H-pyrrolo[2,3-c]pyridine-4-carboxamide], 0.57 µM; under `CC(C)N1CC[C@H](NC(=O)c2cn(C)c(=O)c3[nH]ccc23)[C@H](C)C1` (relative stereo) [Example 238], 2.1 µM.
`CN(C)C1CCN(C(=O)c2cn(C)c(=O)c3[nH]ccc23)CC1` [Example 40, 4-[4-(dimethylamino)piperidine-1-carbonyl]-6-methyl-1H-pyrrolo[2,3-c]pyridin-7-one] registered an IC50 of 0.069 µM.
Under `CCCN1CCC(N(C(=O)c2cn(C)c(=O)c3[nH]ccc23)C2CC2)CC1` [Example 82, N-cyclopropyl-6-methyl-7-oxo-N-(1-propyl-4-piperidyl)-1H-pyrrolo[2,3-c]pyridine-4-carboxamide] stands 7 µM; under `Cn1cc(C(=O)NCC2CCCC2)c2cc[nH]c2c1=O` [Example 83, N-(cyclopentylmethyl)-6-methyl-7-oxo-1H-pyrrolo[2,3-c]pyridine-4-carboxamide], 0.67 µM; under `Cn1cc(C(=O)N2CCC(c3cnccn3)CC2)c2cc[nH]c2c1=O` [Example 51, 6-methyl-4-(4-pyrazin-2-ylpiperidine-1-carbonyl)-1H-pyrrolo[2,3-c]pyridin-7-one], 4.4 µM.
For `CN(CC1CCN(Cc2cccc(Cl)c2)CC1)C(=O)c1cn(C)c(=O)c2[nH]ccc12` [Example 199] the value was 18 µM; for `Cn1cc(C(=O)NC2CCN(C3CCCC3)CC2)c2cc[nH]c2c1=O` [Example 43, N-(1-cyclopentyl-4-piperidyl)-6-methyl-7-oxo-1H-pyrrolo[2,3-c]pyridine-4-carboxamide], 0.72 µM.
